Measured values as given in US8791131B2, “Imidazo[1,5]naphthyridine compounds, their pharmaceutical use and compositions” (Pfizer Inc., priority 2008, dated 2014).
pKi: −log10 of the molar value. Read-outs that look alike come from different tables or passages of the source.

What was measured:
PI3-Kα = PI3-Kα (Mus musculus (Mouse), UniProt P42337); assay: PI3-Kα biochemical assay (in vitro kinase assay, fluorescence polarization); conditions: for pKi: read-out: PI3Ka Ki; for PI3Ka Ki: Ki calculated from IC50, [ATP]=30 uM, Km=25 uM;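 for all read-outs here: Insect-cell-expressed mouse p110/p85 complex converting PI(4,5)P2, product PI(3,4,5)P3 detected by displacing TAMRA-tagged PI(3,4,5)P3 from Grip1 PH domain, lower polarization means more product, room temperature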
[1] = system: PI3-K (phosphorylation of AKT at serine 473) in BT20 cells; assay: PI3-Kα cellular assay (phospho-AKT Ser473 ELISA in BT20 cells); conditions: Homo sapiens, BT-20, 1 h;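 note: lysates read by ELISA with TMB colour at 450 nm, cells given 0.5% DMSO vehicle serve as positive control and cell-free wells as negative control, duplicate wells per concentration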
mTOR [2] = target: T1, mTOR (Homo sapiens (Human), UniProt P42345); assay: biochemical
mTOR [3] = target: T1, mTOR
[4] = read-out: S473 pAKT 0.5% FBS IC50 (μM)
[5] = read-out: S473 pAKT 10% FBS IC50 (μM)

T1 sequence (P42345 2156-2469): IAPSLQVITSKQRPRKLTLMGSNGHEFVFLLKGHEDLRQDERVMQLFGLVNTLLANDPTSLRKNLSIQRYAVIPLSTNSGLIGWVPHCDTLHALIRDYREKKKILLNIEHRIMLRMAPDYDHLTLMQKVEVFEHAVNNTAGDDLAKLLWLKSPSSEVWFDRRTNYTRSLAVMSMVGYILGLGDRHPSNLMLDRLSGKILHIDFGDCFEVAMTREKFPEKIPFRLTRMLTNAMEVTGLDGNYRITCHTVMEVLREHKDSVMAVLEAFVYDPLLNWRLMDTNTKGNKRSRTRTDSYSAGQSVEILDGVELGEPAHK
Sequence of PI3-Kα (P42337 whole entry, the tested form may be a part): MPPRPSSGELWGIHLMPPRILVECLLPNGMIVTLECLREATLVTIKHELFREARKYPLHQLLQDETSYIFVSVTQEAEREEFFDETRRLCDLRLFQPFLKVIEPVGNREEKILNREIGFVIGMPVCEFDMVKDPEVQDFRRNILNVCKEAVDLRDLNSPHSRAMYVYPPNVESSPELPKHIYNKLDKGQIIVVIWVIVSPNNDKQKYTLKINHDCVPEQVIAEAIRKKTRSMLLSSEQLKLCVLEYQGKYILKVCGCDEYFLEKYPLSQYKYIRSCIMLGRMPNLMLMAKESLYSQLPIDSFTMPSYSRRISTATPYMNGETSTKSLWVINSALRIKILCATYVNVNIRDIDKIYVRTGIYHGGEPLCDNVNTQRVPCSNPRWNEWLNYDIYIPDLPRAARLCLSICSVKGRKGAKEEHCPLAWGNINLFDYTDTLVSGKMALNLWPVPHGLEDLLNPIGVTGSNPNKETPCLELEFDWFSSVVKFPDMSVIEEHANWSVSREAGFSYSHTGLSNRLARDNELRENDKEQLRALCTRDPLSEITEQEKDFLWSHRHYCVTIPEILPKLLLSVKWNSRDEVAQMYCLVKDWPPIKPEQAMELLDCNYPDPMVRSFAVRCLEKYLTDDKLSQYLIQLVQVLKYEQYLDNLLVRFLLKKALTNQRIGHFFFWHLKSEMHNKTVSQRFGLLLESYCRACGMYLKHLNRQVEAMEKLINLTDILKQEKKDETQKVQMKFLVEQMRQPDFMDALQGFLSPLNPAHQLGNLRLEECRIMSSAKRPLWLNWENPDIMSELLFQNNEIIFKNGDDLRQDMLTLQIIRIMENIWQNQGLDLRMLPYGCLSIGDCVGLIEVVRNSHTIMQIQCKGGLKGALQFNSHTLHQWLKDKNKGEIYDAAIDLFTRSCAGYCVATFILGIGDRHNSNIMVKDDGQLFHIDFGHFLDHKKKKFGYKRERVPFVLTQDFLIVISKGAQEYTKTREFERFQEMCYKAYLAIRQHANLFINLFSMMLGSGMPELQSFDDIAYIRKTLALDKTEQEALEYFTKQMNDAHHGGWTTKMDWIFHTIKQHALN
Sequence of PI3-Kα (P26450 whole entry partner, the tested form may be a part): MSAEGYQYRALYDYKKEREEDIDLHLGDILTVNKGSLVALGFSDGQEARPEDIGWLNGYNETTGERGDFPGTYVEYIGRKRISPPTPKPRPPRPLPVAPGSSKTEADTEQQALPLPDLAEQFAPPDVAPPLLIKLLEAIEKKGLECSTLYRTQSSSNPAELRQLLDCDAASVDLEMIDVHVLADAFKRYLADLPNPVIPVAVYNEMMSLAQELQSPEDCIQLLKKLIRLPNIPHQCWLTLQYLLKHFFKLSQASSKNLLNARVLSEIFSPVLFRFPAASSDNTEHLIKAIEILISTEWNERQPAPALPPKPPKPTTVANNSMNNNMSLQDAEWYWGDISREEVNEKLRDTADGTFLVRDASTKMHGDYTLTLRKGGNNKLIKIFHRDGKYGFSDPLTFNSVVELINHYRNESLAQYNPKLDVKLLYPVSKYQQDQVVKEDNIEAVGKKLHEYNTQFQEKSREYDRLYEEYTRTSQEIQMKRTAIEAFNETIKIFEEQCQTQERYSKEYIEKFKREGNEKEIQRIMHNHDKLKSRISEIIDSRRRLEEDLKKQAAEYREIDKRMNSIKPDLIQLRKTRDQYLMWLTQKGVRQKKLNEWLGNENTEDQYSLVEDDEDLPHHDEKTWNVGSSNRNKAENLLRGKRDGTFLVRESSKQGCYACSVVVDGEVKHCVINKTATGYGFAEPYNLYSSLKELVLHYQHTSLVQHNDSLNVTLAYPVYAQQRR

| SMILES | pKi (PI3-Kα) | IC50 [1, 4] [µM] | pKi (mTOR [2]) | IC50 [1, 5] [µM] | PI3Ka Ki (PI3-Kα) [nM] | pKi (mTOR [3]) |
| --- | --- | --- | --- | --- | --- | --- |
| CC(C)(C#N)c1ccc(-n2c(=O)[nH]c3cnc4ccc(-c5cnc6ccccc6c5)nc4c32)cc1 [Compound 101, 2-methyl-2-[4-(2-oxo-8-quinolin-3-yl-2,3-dihydro-1H-imidazo[4,5-c]-1,5-naphthyridin-1-yl)phenyl]propanenitrile] | 8.36 | 0.00647 | 8.44 |  |  |  |
| Cn1c(=O)n(-c2ccc(C(C)(C)C#N)cc2)c2c3nc(-c4cnc5ccccc5c4)ccc3ncc21 [Compound 102, 2-methyl-2-[4-(3-methyl-2-oxo-8-quinolin-3-yl-2,3-dihydro-1H-imidazo[4,5-c]-1,5-naphthyridin-1-yl)phenyl]propanenitrile] | 9.12 | 0.00354 | 8.52 |  |  |  |
| O=C(OCc1ccccc1)N1CCC(n2c(=O)[nH]c3cnc4ccc(-c5cnc6ccccc6c5)nc4c32)CC1 [Compound 115, benzyl4-(2-oxo-8-quinolin-3-yl-2,3-dihydro-1H-imidazo[4,5-c][1,5]naphthyridin-1-yl)piperidine-1-carboxylate] | 8.11 | 0.0322 | 7.67 |  |  |  |
| Cn1c(=O)n(C2CCN(C(=O)OCc3ccccc3)CC2)c2c3nc(-c4cnc5ccccc5c4)ccc3ncc21 [Compound 116, benzyl4-(3-methyl-2-oxo-8-quinolin-3-yl-2,3-dihydro-1H-imidazo[4,5-c][1,5]naphthyridin-1-yl)piperidine-1-carboxylate] | 8.54 | 0.0134 | 8.19 |  |  |  |
| Cn1c(=O)n(C2CCNCC2)c2c3nc(-c4cnc5ccccc5c4)ccc3ncc21 [Compound 118, 3-methyl-1-piperidin-4-yl-8-quinolin-3-yl-1,3-dihydro-2H-imidazo[4,5-c][1,5]naphthyridin-2-one] | 8.68 |  | 7.88 |  |  |  |
| CC(=O)N1CCC(n2c(=O)n(C)c3cnc4ccc(-c5cnc6ccccc6c5)nc4c32)CC1 [Compound 120, 1-(1-acetylpiperidin-4-yl)-3-methyl-8-quinolin-3-yl-1,3-dihydro-2H-imidazo[4,5-c][1,5]naphthyridin-2-one] | 9.01 | 0.00459 | 8.27 |  |  |  |
| Cn1c(=O)n([C@H]2CC[C@H](O)CC2)c2c3nc(-c4cnn(CCO)c4)ccc3ncc21 [Compound 164, 1-(trans-4-hydroxycyclohexyl)-8-[1-(2-hydroxyethyl)-1H-pyrazol-4-yl]-3-methyl-1,3-dihydro-2H-imidazo[4,5-c][1,5]naphthyridin-2-one] | 7.79 |  | 7.85 | 0.448 |  |  |
| Cc1ccc(-c2ccc3ncc4c(c3n2)n(C2CCN(C(N)=O)CC2)c(=O)n4C)cn1 [Compound 167, 4-[3-methyl-8-(6-methylpyridin-3-yl)-2-oxo-2,3-dihydro-1H-imidazo[4,5-c][1,5]naphthyridin-1-yl]piperidine-1-carboxamide] | 8.71 |  | 8.89 | 0.112 |  |  |
| CN(C)c1ccc(-c2ccc3ncc4c(c3n2)n([C@H]2CC[C@H](O)CC2)c(=O)n4C)cn1 [Compound 175, 8-[6-(dimethylamino)pyridin-3-yl]-1-(trans-4-hydroxycyclohexyl)-3-methyl-1,3-dihydro-2H-imidazo[4,5-c][1,5]naphthyridin-2-one] | 9.18 |  | 8.74 | 0.00526 |  |  |
| Cc1ccc(-c2ccc3ncc4c(c3n2)n(C2CCNCC2)c(=O)n4C)cn1 [Compound 177, 3-methyl-8-(6-methyl-pyridin-3-yl)-1-piperidin-4-yl-1,3-dihydro-1,3,5,9-tetraaza-cyclopenta[a]naphthalen-2-one] | 8.61 |  | 8.14 | 0.101 |  |  |
| CNC(=O)N1CCC(n2c(=O)n(C)c3cnc4ccc(-c5ccc(C)nc5)nc4c32)CC1 [Compound 181, N-methyl-4-[3-methyl-8-(6-methylpyridin-3-yl)-2-oxo-2,3-dihydro-1H-imidazo[4,5-c][1,5]naphthyridin-1-yl]piperidine-1-carboxamide] | 8.49 |  | 8.97 | 0.0594 |  |  |
| CNC(=O)N1CCC(n2c(=O)n(C)c3cnc4ccc(-c5cnc(OC)nc5)nc4c32)CC1 [Compound 186, 4-[8-(2-methoxypyrimidin-5-yl)-3-methyl-2-oxo-2,3-dihydro-1H-imidazo[4,5-c][1,5]naphthyridin-1-yl]-N-methylpiperidine-1-carboxamide] | 8.60 |  | 8.51 | 0.0681 |  |  |
| COc1ncc(-c2ccc3ncc4c(c3n2)n(C2CCN(C(=O)CO)CC2)c(=O)n4C)cn1 [Compound 189, 1-(1-glycoloylpiperidin-4-yl)-8-(2-methoxypyrimidin-5-yl)-3-methyl-1,3-dihydro-2H-imidazo[4,5-c][1,5]naphthyridin-2-one] | 8.75 |  | 8.71 | 0.0272 |  |  |
| COc1ncc(-c2ccc3ncc4c(c3n2)n(C2CCN(CC(N)=O)CC2)c(=O)n4C)cn1 [Compound 190, 2-{4-[8-(2-methoxypyrimidin-5-yl)-3-methyl-2-oxo-2,3-dihydro-1H-imidazo[4,5-c][1,5]naphthyridin-1-yl]piperidin-1-yl}acetamide] | 8.30 |  | 8.01 | 0.0903 |  |  |
| CN[C@H]1CC[C@H](n2c(=O)n(C)c3cnc4ccc(-c5cnc6ccccc6c5)nc4c32)CC1 [Compound 193, 3-methyl-1-[trans-4-(methylamino)cyclohexyl]-8-quinolin-3-yl-1,3-dihydro-2H-imidazo[4,5-c][1,5]naphthyridin-2-one] | 8.79 | 0.0404 | 7.88 |  |  |  |
| Cn1c(=O)n([C@H]2CC[C@H](N)CC2)c2c3nc(-c4cnc5ccccc5c4)ccc3ncc21 [Compound 194, 1-(trans-4-aminocyclohexyl)-3-methyl-8-quinolin-3-yl-1,3-dihydro-2H-imidazo[4,5-c][1,5]naphthyridin-2-one] | 8.64 | 0.0464 | 8.10 |  |  |  |
| CN(C)C(=O)CN1CCC(n2c(=O)n(C)c3cnc4ccc(-c5cnn(C)c5)nc4c32)CC1 [Compound 212, N,N-dimethyl-2-{4-[3-methyl-8-(1-methyl-1H-pyrazol-4-yl)-2-oxo-2,3-dihydro-1H-imidazo[4,5-c][1,5]naphthyridin-1-yl]piperidin-1-yl}acetamide] | 7.83 |  | 7.55 | 0.248 |  |  |
| CC(=O)N1CCC(n2c(=O)n(C)c3cnc4ccc(-c5cccc6ncccc56)nc4c32)CC1 [Compound 249, 1-(1-acetylpiperidin-4-yl)-3-methyl-8-quinolin-5-yl-1,3-dihydro-2H-imidazo[4,5-c][1,5]naphthyridin-2-one] | 8.35 |  | 6.35 | 0.194 |  |  |
| COc1ccc(-c2ccc3ncc4c(c3n2)n(CCN2CCNCC2)c(=O)n4C)cn1 [Compound 266, 8-(6-methoxypyridin-3-yl)-3-methyl-1-(2-piperazin-1-ylethyl)-1,3-dihydro-2H-imidazo[4,5-c][1,5]naphthyridin-2-one] |  |  |  | 0.344 | 7.8 | 6.56 |
| Cn1c(=O)n([C@H]2CC[C@H](O)CC2)c2c3nc(-c4ccc5[nH]ncc5c4)ccc3ncc21 [Compound 267, 1-(trans-4-hydroxycyclohexyl)-8-(1H-indazol-5-yl)-3-methyl-1,3-dihydro-2H-imidazo[4,5-c][1,5]naphthyridin-2-one] |  |  |  | 0.0205 | 0.145 | 9.44 |
| COCCn1c(=O)n(C)c2cnc3ccc(-c4ccc(OC)nc4)nc3c21 [Compound 270, 1-(2-methoxyethyl)-8-(6-methoxypyridin-3-yl)-3-methyl-1,3-dihydro-2H-imidazo[4,5-c][1,5]naphthyridin-2-one] |  |  |  | 0.207 | 13.5 | 8.15 |
| COc1ccc(-c2ccc3ncc4c(c3n2)n(C2CCN(C(C)=O)CC2)c(=O)n4C)cc1 [Compound 274, 1-(1-acetylpiperidin-4-yl)-8-(4-methoxyphenyl)-3-methyl-1,3-dihydro-2H-imidazo[4,5-c][1,5]naphthyridin-2-one] |  |  |  | 0.0113 | 7.71 | 7.84 |
| COc1cccc(-c2ccc3ncc4c(c3n2)n(C2CCN(C(=O)[C@H](C)O)CC2)c(=O)n4C)c1 [Compound 275, 1-{1-[(2S)-2-hydroxypropanoyl]piperidin-4-yl}-8-(3-methoxyphenyl)-3-methyl-1,3-dihydro-2H-imidazo[4,5-c][1,5]naphthyridin-2-one] |  |  |  | 0.0344 | 2.01 | 8.07 |
| COc1cccc(-c2ccc3ncc4c(c3n2)n(C2CCN(C(=O)CO)CC2)c(=O)n4C)c1 [Compound 276, 1-(1-glycoloylpiperidin-4-yl)-8-(3-methoxyphenyl)-3-methyl-1,3-dihydro-2H-imidazo[4,5-c][1,5]naphthyridin-2-one] |  |  |  | 0.0304 | 2.22 | 7.99 |
| COc1cccc(-c2ccc3ncc4c(c3n2)n(C2CCN(C(C)=O)CC2)c(=O)n4C)c1 [Compound 277, 1-(1-acetylpiperidin-4-yl)-8-(3-methoxyphenyl)-3-methyl-1,3-dihydro-2H-imidazo[4,5-c][1,5]naphthyridin-2-one] |  |  |  | 0.0577 | 3.04 | 7.99 |
